Test results reported in ChEMBL document CHEMBL1201862, “PubChem BioAssay data set” (2004).
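Growth conditions: 96-well plates. Treatment: test compound, 48 hours, 5 concentrations. Analysis: linear interpolation between bracketing concentrations; unreached endpoints set to highest concentration. GI50: concentration for 50% inhibition of growth.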 Activity calls are given as the source filed them. No stated cut-off is given here; in the data, active = GI50 up to about 1.1 µM and inactive = higher.

What was measured:
Test in all cases: NCI anticancer screen, dose series, 48 h
HL-60 = test system: HL-60
Malme-3M = test system: Malme-3M
K562 = test system: K562
IGROV-1 = test system: IGROV-1
SK-MEL-5 = test system: SK-MEL-5
KM12 = test system: KM12
RPMI-8226 = test system: RPMI-8226
HT-29 = test system: HT-29
SNB-75 = test system: SNB-75
TK-10 = test system: TK-10
A498 = test system: A498
UACC-62 = test system: UACC-62
SK-MEL-28 = test system: SK-MEL-28
U-251 = test system: U-251
OVCAR-4 = test system: OVCAR-4
SF-539 = test system: SF-539
SNB-19 = test system: SNB-19
OVCAR-5 = test system: OVCAR-5
MDA-N = test system: MDA-N
T47D = test system: T47D

Measured: GI50

CS(=O)(=O)ON1C(=O)c2ccc(N)cc2C1=O
inactive: HL-60 17.5 µM | Malme-3M > 100 µM | K562 42.8 µM | IGROV-1 > 100 µM | SK-MEL-5 > 100 µM | KM12 > 100 µM | RPMI-8226 23.8 µM | HT-29 > 79.3 µM | SNB-75 > 100 µM | TK-10 > 100 µM | A498 > 100 µM | UACC-62 > 64 µM | SK-MEL-28 > 49.4 µM | U-251 > 100 µM | OVCAR-4 > 100 µM | SF-539 > 72.9 µM | SNB-19 > 100 µM | OVCAR-5 > 100 µM

O=c1[nH]c2c(S)nc(O)nc2n1-c1ccccc1
inactive: Malme-3M > 100 µM | K562 > 100 µM | IGROV-1 > 100 µM | SK-MEL-5 > 100 µM | KM12 > 100 µM | HT-29 > 100 µM | TK-10 > 100 µM | MDA-N > 100 µM | A498 > 100 µM | UACC-62 > 100 µM | SK-MEL-28 > 100 µM | U-251 > 100 µM | OVCAR-4 > 100 µM | SNB-19 > 100 µM | OVCAR-5 > 100 µM

c1cc(-c2cn3ccsc3n2)ccn1
inactive: HL-60 > 44.9 µM | Malme-3M > 100 µM | K562 > 47.2 µM | IGROV-1 > 100 µM | SK-MEL-5 > 100 µM | KM12 > 100 µM | RPMI-8226 > 54.5 µM | HT-29 > 100 µM | SNB-75 > 86.9 µM | TK-10 > 100 µM | A498 > 100 µM | UACC-62 > 100 µM | SK-MEL-28 > 100 µM | U-251 > 100 µM | OVCAR-4 > 65.8 µM | SF-539 > 100 µM | SNB-19 > 100 µM | OVCAR-5 > 100 µM

N=C(N)C1=C(O)NC(=O)N(C2CCCCC2)C1
inactive: HL-60 > 100 µM | Malme-3M > 100 µM | K562 > 100 µM | IGROV-1 > 100 µM | SK-MEL-5 > 100 µM | KM12 > 100 µM | RPMI-8226 > 100 µM | HT-29 > 100 µM | SNB-75 > 100 µM | TK-10 > 100 µM | A498 > 100 µM | UACC-62 > 100 µM | SK-MEL-28 > 100 µM | U-251 > 100 µM | OVCAR-4 > 100 µM | SF-539 > 100 µM | SNB-19 > 100 µM | OVCAR-5 > 100 µM

C=CCNC(=O)NC1=CSC2=NC(=O)C3(NN12)c1ccccc1-c1ccccc13
inactive: HL-60 > 10 µM | Malme-3M > 10 µM | K562 > 10 µM | IGROV-1 > 10 µM | SK-MEL-5 > 10 µM | KM12 > 10 µM | RPMI-8226 > 10 µM | HT-29 > 10 µM | SNB-75 > 10 µM | TK-10 > 10 µM | UACC-62 > 10 µM | SK-MEL-28 > 10 µM | OVCAR-4 > 10 µM | SF-539 > 10 µM | SNB-19 > 10 µM | T47D > 10 µM | OVCAR-5 > 10 µM

Cc1ccc(C(=O)O)cc1NC(=O)c1cc(/C=C/c2ccccc2)[nH]c(=S)n1
inactive: HL-60 > 69 µM | Malme-3M > 100 µM | K562 > 54.8 µM | IGROV-1 > 100 µM | SK-MEL-5 > 100 µM | KM12 > 100 µM | RPMI-8226 > 44.1 µM | HT-29 > 64.4 µM | SNB-75 > 100 µM | TK-10 > 100 µM | A498 > 100 µM | UACC-62 > 100 µM | SK-MEL-28 > 100 µM | U-251 > 100 µM | OVCAR-4 > 100 µM | SF-539 > 100 µM | SNB-19 > 100 µM | OVCAR-5 > 100 µM

CC1(C)OCC(C2OC(OC(=O)c3ccc(C(F)(F)F)cc3)C3OC(C)(C)OC23)O1 (stereo not given)
inactive: Malme-3M > 77.4 µM | K562 > 77.4 µM | IGROV-1 > 77.4 µM | SK-MEL-5 74.5 µM | KM12 72.3 µM | RPMI-8226 44.4 µM | HT-29 73.1 µM | SNB-75 40.2 µM | TK-10 > 77.4 µM | MDA-N > 77.4 µM | A498 > 77.4 µM | UACC-62 > 77.4 µM | SK-MEL-28 > 77.4 µM | U-251 57.8 µM | OVCAR-4 > 77.4 µM | SF-539 > 77.4 µM | SNB-19 > 77.4 µM | OVCAR-5 > 77.4 µM

COc1cc2c(cc1OCCCOc1cc(-c3ccc(F)cc3)nc(C)n1)N=C[C@@H]1CCCN1C2=O
inactive: HL-60 24.9 µM | Malme-3M 12.8 µM | IGROV-1 19.2 µM | SK-MEL-5 15.9 µM | KM12 19.3 µM | RPMI-8226 26.1 µM | HT-29 23.1 µM | SNB-75 19.1 µM | TK-10 18.1 µM | A498 12.7 µM | UACC-62 14.5 µM | SK-MEL-28 20.7 µM | U-251 14.8 µM | OVCAR-4 33.5 µM | SF-539 16.6 µM | SNB-19 20.1 µM | T47D 25.8 µM

CC(=O)OC1OC(c2ccoc2)C[C@@]12C1CCC3O[C@]3(C)[C@]1(C)[C@H](OC(C)=O)[C@H](OC(C)=O)[C@H]2C (stereo not given in full)
inactive: HL-60 6.62 µM | Malme-3M > 37.5 µM | K562 > 37.5 µM | IGROV-1 > 37.5 µM | SK-MEL-5 > 37.5 µM | KM12 > 37.5 µM | HT-29 > 37.5 µM | TK-10 > 37.5 µM | MDA-N > 37.5 µM | A498 > 37.5 µM | UACC-62 > 37.5 µM | SK-MEL-28 > 37.5 µM | U-251 > 37.5 µM | OVCAR-4 > 37.5 µM | SF-539 > 37.5 µM | SNB-19 > 37.5 µM | OVCAR-5 > 37.5 µM

c1ccc2/c3[nH]/c(c2c1)=N\c1ccc(cc1)-c1nc2cc(ccc2o1)/N=c1/[nH]/c(c2ccccc12)=N/c1ccc2nc(oc2c1)-c1ccc(cc1)\N=3
inactive: HL-60 > 100 µM | K562 > 100 µM | IGROV-1 > 100 µM | SK-MEL-5 > 100 µM | KM12 81.1 µM | HT-29 49.4 µM | MDA-N > 100 µM | A498 > 100 µM | UACC-62 95.3 µM | SK-MEL-28 > 100 µM | U-251 > 100 µM | OVCAR-4 > 100 µM | SNB-19 > 100 µM | OVCAR-5 > 100 µM

CC1=NN(c2nc(N)nc(CF)n2)C(C)(C)C1
inactive: HL-60 > 100 µM | K562 49.3 µM | IGROV-1 > 100 µM | SK-MEL-5 > 100 µM | KM12 > 100 µM | RPMI-8226 > 100 µM | HT-29 > 100 µM | SNB-75 > 100 µM | TK-10 > 100 µM | A498 > 100 µM | UACC-62 > 100 µM | SK-MEL-28 > 100 µM | U-251 > 100 µM | OVCAR-4 > 100 µM | SF-539 > 100 µM | SNB-19 > 100 µM | T47D > 100 µM

CC1(C)O[C@@H]2[C@@H](COC(=O)c3ccccc3)C[C@@H](C#N)[C@@H]2O1
inactive: HL-60 > 100 µM | Malme-3M > 100 µM | K562 > 100 µM | IGROV-1 > 100 µM | SK-MEL-5 > 100 µM | KM12 > 100 µM | RPMI-8226 > 100 µM | HT-29 > 100 µM | SNB-75 > 100 µM | TK-10 > 100 µM | A498 > 100 µM | UACC-62 > 100 µM | SK-MEL-28 > 100 µM | U-251 > 100 µM | OVCAR-4 > 100 µM | SF-539 > 100 µM | SNB-19 > 100 µM | T47D > 100 µM | OVCAR-5 > 100 µM

C#CCNC(Cc1ccccc1)C(=O)O (stereo not given)
inactive: HL-60 > 100 µM | Malme-3M > 100 µM | K562 > 100 µM | IGROV-1 > 100 µM | SK-MEL-5 > 100 µM | KM12 > 100 µM | RPMI-8226 > 100 µM | HT-29 > 100 µM | SNB-75 > 100 µM | TK-10 > 100 µM | A498 > 100 µM | UACC-62 > 100 µM | SK-MEL-28 > 100 µM | U-251 > 100 µM | OVCAR-4 > 100 µM | SNB-19 > 100 µM | T47D > 100 µM | OVCAR-5 > 100 µM

COC1C=COC2(C)Oc3c(C)c(O)c4c(O)c(c(C5SCCS5)c(O)c4c3C2=O)NC(=O)C(C)=C/C=C\C(C)C2OC(C)(C)OC(C2C)C(C)C(OC(C)=O)C1C (stereo not given)
inactive: HL-60 5.53 µM | Malme-3M 11.5 µM | K562 4.09 µM | IGROV-1 6.56 µM | SK-MEL-5 3.77 µM | KM12 6.04 µM | RPMI-8226 4.57 µM | SNB-75 42.3 µM | TK-10 6.41 µM | A498 12.3 µM | UACC-62 4.02 µM | SK-MEL-28 23.5 µM | U-251 4.78 µM | OVCAR-4 6.07 µM | SF-539 12.9 µM | SNB-19 16.4 µM | T47D 70.6 µM | OVCAR-5 24.3 µM

O.O=C([O-])c1ccccc1Nc1ccccc1C(=O)[O-].[Zn+2]
inactive: HL-60 23.7 µM | Malme-3M 23.2 µM | K562 28.9 µM | IGROV-1 13.3 µM | SK-MEL-5 25.5 µM | KM12 > 100 µM | RPMI-8226 48 µM | HT-29 > 70.6 µM | SNB-75 18.3 µM | TK-10 95.1 µM | A498 19.2 µM | UACC-62 19.7 µM | SK-MEL-28 19.9 µM | U-251 18.7 µM | OVCAR-4 19.8 µM | SF-539 37.7 µM | SNB-19 17.4 µM | OVCAR-5 28.2 µM
